How the values were obtained:
hPPARδ = target: T1, hPPARδ (Homo sapiens, UniProt Q03181); test: PPAR receptor transactivation assay (UAS-bla Gal4, HEK293); type: cell-based
T1 construct: expressed in transfected cells; host or cells: Jump-In GripTite HEK293
T1 sequence (Q03181 1-441): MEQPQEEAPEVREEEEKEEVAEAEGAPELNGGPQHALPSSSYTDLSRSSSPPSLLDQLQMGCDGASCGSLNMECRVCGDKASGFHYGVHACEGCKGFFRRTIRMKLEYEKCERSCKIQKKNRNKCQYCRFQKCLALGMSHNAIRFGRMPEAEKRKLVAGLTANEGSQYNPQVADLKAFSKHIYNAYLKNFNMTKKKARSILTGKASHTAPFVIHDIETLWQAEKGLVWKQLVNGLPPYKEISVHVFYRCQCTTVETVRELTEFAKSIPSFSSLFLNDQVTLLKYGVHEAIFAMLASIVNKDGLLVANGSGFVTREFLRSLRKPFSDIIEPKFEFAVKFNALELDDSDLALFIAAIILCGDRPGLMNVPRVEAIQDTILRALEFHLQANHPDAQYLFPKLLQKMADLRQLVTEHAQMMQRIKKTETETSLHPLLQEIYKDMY
Procedure: (§1) Compound I was tested on all three human PPAR subtypes (hPPAR): hPPARα, hPPARγ, and hPPARδ in vitro assays testing for such activity.
(§2) Compound I was tested on all three human PPAR subtypes (hPPAR): hPPARα, hPPARγ, and hPPARδ. All assays were repeated at least three times for each subtype.
(§3) The genes of interest were synthesized and cloned into an appropriate Jump-In™ retargeting vector following the User Guide of the Jump-in™ T-REx™ HEK293 Retargeting Kit (ThermoFisher Catalog No A15008). For example, the vector will be used to transfect and retarget the Jump-In™ HEK293 GripTite™ parental cell line. Stable pools will be antibiotic-selected for about 21 days and tested for target gene expression by functional assay.
(§4) Jump-In™ GripTite™ HEK293 parental cells were plated at 60-80% confluency in a T-75 flask in growth medium without antibiotics and transfected with a 1:1 ratio of expression construct and R4 integrase expression construct (20 μg DNA total) using Lipofectamine® LTX (50 μL) and PLUS™ Reagent (20 μL). Following a 48 hours incubation, cells were selected with 600 μg/mL Geneticin® and 10 μg/mL Blasticidin for ˜21 days in growth medium.
(§5) Jump-In™ GripTite™ HEK293 rPPAR Alpha, Delta or Gamma UAS-bla-Gal4 cell pools were plated in a 384-well plate format (20,000 cells per well) in OptiMeM without FBS in replicates (n=4). Cells were allowed to adhere for 8 hours before addition of Compound I (1 mM top concentration, 3-fold dilutions, 10-point titration). After 16 hours, the cells were loaded with LiveBLAzer®, a fluorescent BLA substrate that gives a blue/green readout of expressing/non-expressing cells, respectively. The blue/green readout was measured on a fluorescent plate reader (Tecan Safire II).

hPPARγ = target: T2, hPPARγ (Homo sapiens, UniProt P37231); test: as above; type: cell-based
T2 construct: expressed in transfected cells; host or cells: Jump-In GripTite HEK293
Procedure: as §1, §2, §3, §4, §5

PPARα = PPARα (UniProt Q4PNY3); test: PPAR receptor transactivation assay; type: cell-based; details: Monkey PPARα
[1] = system: patients with primary mitochondrial myopathy; test: Clinical trial for primary mitochondrial myopathy (PMM); type: in vivo, human
[2] = 100 mg once daily, 12 weeks, listed as Compound 1

T2 sequence (P37231 whole entry): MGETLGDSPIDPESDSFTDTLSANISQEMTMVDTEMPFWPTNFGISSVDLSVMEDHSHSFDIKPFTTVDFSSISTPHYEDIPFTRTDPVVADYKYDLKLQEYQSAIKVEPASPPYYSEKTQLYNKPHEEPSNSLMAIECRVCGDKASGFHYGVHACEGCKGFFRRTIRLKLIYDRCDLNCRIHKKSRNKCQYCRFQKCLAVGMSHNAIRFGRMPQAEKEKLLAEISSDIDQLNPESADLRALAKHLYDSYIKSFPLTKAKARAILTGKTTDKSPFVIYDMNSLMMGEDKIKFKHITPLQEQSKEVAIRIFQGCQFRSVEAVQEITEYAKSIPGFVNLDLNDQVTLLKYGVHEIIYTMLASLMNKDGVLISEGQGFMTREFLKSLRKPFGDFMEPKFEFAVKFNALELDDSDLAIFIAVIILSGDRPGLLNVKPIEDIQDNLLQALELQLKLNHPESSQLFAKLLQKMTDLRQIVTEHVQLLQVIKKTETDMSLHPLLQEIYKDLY

## Cc1cc(OC/C=C(/c2ccc(F)cc2)c2ccc(C#CCN3CCOCC3)cc2)ccc1OCC(=O)O [Compound I, (E)-2-(4-((3-(4-fluorophenyl)-3-(4-(3-morpholinoprop-1-yn-1-yl)phenyl)allyl)oxy)-2-methylphenoxy)acetic acid]
hPPARδ; PPARδ
  agonist type: full agonist
hPPARδ; PPARδ over PPARα
  selectivity for PPARδ over PPARα: 100 fold
hPPARδ; PPARδ over PPARγ
  selectivity for PPARδ over PPARγ: 400 fold
hPPARγ; PPARγ
  agonist type: partial agonist
hPPARγ; human PPARγ
  EC50: > 10 µM
PPARα
  EC50: > 1000 nM
[1]; 100 mg once daily, 12 weeks
  Modified Fatigue Impact Scale scores: trends towards increases
  brief pain inventory (BPI) score: Decreases
  distance walked during a 12-minute walk test: able to increase the distance walked
  peak VO2: trends towards increases
[1]; [2]
  brief pain inventory (BPI) score: decreased
  distance walked during a 12-minute walk test: Improvements
[1]; PMM patients
  tolerability: well tolerated

Reference: patent publication US11931365B2, “Use of PPAR-delta agonists in the treatment of disease” (Reneo Pharmaceuticals, Inc., priority 2022, dated 2024)
